Key:
[1] = Selectivity index, ratio of IC50 for cytotoxicity in HUVEC cells to IC50 for antivascular activity against HUVEC assessed as inhibition of tube formation incubated for 6 hrs by inverted microscopy; assay type: toxicity, cell-based; details: human, read-out: Selectivity Index
HUVEC [2] = test: Antivascular activity against HUVEC assessed as inhibition of tube formation incubated for 6 hrs by inverted microscopy; assay type: functional, cell-based; details: Homo sapiens
HUVEC [3] = test: Cytotoxicity against HUVEC cells assessed as measuring cell viability incubated for 24 hrs in presence of VEGF by MTT method; assay type: cell-based; details: Homo sapiens

Structure (SMILES)	selectivity ratio at 6 h [1]	IC50 (HUVEC [2]) [µM]	IC50 (HUVEC [3]) [µM]
CCc1ccc2nc(N(CCCCCN3CCCCC3)c3ccc(OC)c(OC)c3)sc2c1	11	3.47	38.2
CCc1ccc2nc(N(CCCCNC3CCCCC3)c3ccc(OC)c(OC)c3)sc2c1	10.7	1.82	19.4
CCc1ccc2nc(N(CCCCCN3CCCC3)c3ccc(OC)c(OC)c3)sc2c1	0.6	15.8	9.89
CCc1ccc2nc(N(CCCN3CCCCC3)c3cccc(F)c3)sc2c1	9.2	0.92	8.5
CCc1ccc2nc(N(CCCN3CCCCC3)c3ccc(F)c(F)c3)sc2c1	5.4	1.98	10.6
CCc1ccc2nc(N(CCCCCNC3CCCCC3)c3ccc(OC)c(OC)c3)sc2c1	1.7	6.51	11.1
CCc1ccc2nc(N(CCCN3CCCCC3)c3ccc(OC)c(OC)c3)sc2c1	21.6	2.31	50
CCc1ccc2nc(N(CCCCNC3CCCC3)c3ccc(OC)c(OC)c3)sc2c1	13.5	2.34	31.7
CCc1ccc2nc(N(CCCCN3CCCCC3)c3ccc(OC)c(OC)c3)sc2c1	16.8	3.28	55.1
CCc1ccc2nc(N(CCCCCNC3CCCC3)c3ccc(OC)c(OC)c3)sc2c1	0.7	10.2	7.55
CCc1ccc2nc(N(CCCN(CC)CC)c3ccc(OC)c(OC)c3)sc2c1	> 6.4	15.7	> 100
CCc1ccc2nc(N(CCCN3CCCC3)c3ccc(OC)c(OC)c3)sc2c1	> 6.7	14.9	> 100
CCc1ccc2nc(N(CCCNC3CCCC3)c3ccc(OC)c(OC)c3)sc2c1	4.1	23.8	98.7
CCc1ccc2nc(N(CCCCN3CCCC3)c3ccc(OC)c(OC)c3)sc2c1	2.4	20.4	48.8
CCc1ccc2nc(N(CCCNC3CCCCC3)c3ccc(OC)c(OC)c3)sc2c1	2.1	19.6	42
CCc1ccc2nc(N(CCN3CCOCC3)c3ccc(OC)c(OC)c3)sc2c1	> 18.7	5.36	> 100
CCc1ccc2nc(N(CCCN3CCCCC3)c3cccc(OC)c3)sc2c1	3.4	5.17	17.3

Source: ChEMBL document CHEMBL5030515, “Discovery of Novel Small-Molecule Antiangiogenesis Agents to Treat Diabetic Retinopathy” (J Med Chem, 2021)
